Measurements: the supplement of paper PMC11451515

Tested on: SEM cells
Assay: cell viability relative to DMSO control; higher = less cytotoxic
Settings: 48 h
Outline: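 Library compounds in DMSO were pin-dosed into 1536-well plates (5 μl) holding NOMO1 or SEM (500 cells/well) or P12-Ichikawa (1000 cells/well) leukemia cells, across an 11-point threefold series of 47 μM to 0.79 nM. Each cell line had been adapted for at least four passages in each medium. CellTiter-Glo One luminescence was read after 48 h at 37°C. Viability is the per-plate percentage relative to DMSO wells, with cell-free wells as background.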

[1] = HPLM + 10% dialyzed FBS, 0.000781 µM
[2] = HPLM + 10% dialyzed FBS, 0.00234 µM
[3] = HPLM + 10% dialyzed FBS, 0.00702 µM
[4] = HPLM + 10% dialyzed FBS, 0.0211 µM
[5] = HPLM + 10% dialyzed FBS, 0.0632 µM
[6] = HPLM + 10% dialyzed FBS, 0.19 µM
[7] = HPLM + 10% dialyzed FBS, 0.569 µM
[8] = HPLM + 10% dialyzed FBS, 1.71 µM
[9] = HPLM + 10% dialyzed FBS, 5.12 µM
[10] = HPLM + 10% dialyzed FBS, 15.4 µM
[11] = HPLM + 10% dialyzed FBS, 46.1 µM
[12] = RPMI 5 mM glucose + 10% FBS, 0.000781 µM
[13] = RPMI 5 mM glucose + 10% FBS, 0.00234 µM
[14] = RPMI 5 mM glucose + 10% FBS, 0.00702 µM
[15] = RPMI 5 mM glucose + 10% FBS, 0.0211 µM
[16] = RPMI 5 mM glucose + 10% FBS, 0.0632 µM
[17] = RPMI 5 mM glucose + 10% FBS, 0.19 µM
[18] = RPMI 5 mM glucose + 10% FBS, 0.569 µM
[19] = RPMI 5 mM glucose + 10% FBS, 1.71 µM
[20] = RPMI 5 mM glucose + 10% FBS, 5.12 µM
[21] = RPMI 5 mM glucose + 10% FBS, 15.4 µM
[22] = RPMI 5 mM glucose + 10% FBS, 46.1 µM
[23] = RPMI 5 mM glucose + 10% dialyzed FBS, 0.000781 µM
[24] = RPMI 5 mM glucose + 10% dialyzed FBS, 0.00234 µM
[25] = RPMI 5 mM glucose + 10% dialyzed FBS, 0.00702 µM
[26] = RPMI 5 mM glucose + 10% dialyzed FBS, 0.0211 µM
[27] = RPMI 5 mM glucose + 10% dialyzed FBS, 0.0632 µM
[28] = RPMI 5 mM glucose + 10% dialyzed FBS, 0.19 µM
[29] = RPMI 5 mM glucose + 10% dialyzed FBS, 0.569 µM
[30] = RPMI 5 mM glucose + 10% dialyzed FBS, 1.71 µM
[31] = RPMI 5 mM glucose + 10% dialyzed FBS, 5.12 µM
[32] = RPMI 5 mM glucose + 10% dialyzed FBS, 15.4 µM
[33] = RPMI 5 mM glucose + 10% dialyzed FBS, 46.1 µM

Structure (SMILES)	cell viability [1] [%]	cell viability [2] [%]	cell viability [3] [%]	cell viability [4] [%]	cell viability [5] [%]	cell viability [6] [%]	cell viability [7] [%]	cell viability [8] [%]	cell viability [9] [%]	cell viability [10] [%]	cell viability [11] [%]	cell viability [12] [%]	cell viability [13] [%]	cell viability [14] [%]	cell viability [15] [%]	cell viability [16] [%]	cell viability [17] [%]	cell viability [18] [%]	cell viability [19] [%]	cell viability [20] [%]	cell viability [21] [%]	cell viability [22] [%]	cell viability [23] [%]	cell viability [24] [%]	cell viability [25] [%]	cell viability [26] [%]	cell viability [27] [%]	cell viability [28] [%]	cell viability [29] [%]	cell viability [30] [%]	cell viability [31] [%]	cell viability [32] [%]	cell viability [33] [%]
Cc1c(C(=O)NN2CCCCC2)nn(-c2ccc(Cl)cc2Cl)c1-c1ccc(Cl)cc1	103	125	113	114	128	129	122	124	131	127	93	103	112	118	118	118	127	127	135	130	129	99.5	107	120	137	116	128	149	139	144	119	133	104
S=C1N\C=N/C2=C1[NH]C=N2	91.2	116	136	121	131	126	124	105	106	90.6	81.7	104	119	144	119	132	139	108	93.3	79.5	73.2	66.4	105	119	138	106	134	119	91.3	56.7	48.5	42.4	33.7
COc1ccc(-n2nc(C(N)=O)c3c2C(=O)N(c2ccc(N4CCCCC4=O)cc2)CC3)cc1	99.5	116	132	142	120	137	134	130	133	145	128	120	136	117	124	101	120	136	145	136	154	136											
NC\1=N\C(=O)N(\C=C1)[C@@H]2O[C@H](CO)[C@@H](O)[C@H]2O	78.4	93.7	119	98.3	117	131	132	115	111	125	75.3	86.3	102	123	90.4	135	143	143	144	127	147	64.7	83.6	101	125	94.5	140	138	154	152	154	153	46.8
